Key:
[1] = Inhibition of recombinant rat/human ADAMTS7 hybrid using HiLyteFluor-488 DELSSMVLELRGLRT-K(QXL520)-E-NH2 as substrate incubated for 120 mins and measured by FRET assay
[2] = Inhibition of recombinant rat/human ADAMTS12 hybrid using HiLyteFluor-488 DELSSMVLELRGLRT-K(QXL520)-E-NH2 as substrate incubated for 120 mins and measured by FRET assay

Row | SMILES | IC50 [1] | IC50 [2]
1 | N#Cc1ccc(-n2ncc(C(=O)NC[C@@]3(C4CC4)NC(=O)NC3=O)n2)cc1 | 40 nM | 17000 nM
2 | O=C1NC(=O)[C@](CNC(=O)c2cnn(-c3ccc(C(F)(F)F)c(F)c3)n2)(C2CC2)N1 | 120 nM | 4600 nM
3 | O=C1NC(=O)[C@](CNC(=O)c2coc(-c3ccc(F)cc3)n2)(C2CC2)N1 | 55 nM | 1700 nM
4 | O=C1NC(=O)[C@](CNC(=O)c2cnn(-c3ccc(Cl)cc3F)n2)(C2CC2)N1 | 60 nM | 1000 nM
5 | O=C1NC(=O)[C@](CNC(=O)c2cnn(-c3ccccc3F)n2)(C2CC2)N1 | 180 nM | 7600 nM
6 | O=C1NC(=O)[C@](CNC(=O)c2cnn(-c3cc(F)ccc3F)n2)(C2CC2)N1 | 110 nM | 5500 nM
7 | O=C1NC(=O)[C@](CNC(=O)c2cnn(-c3ccccn3)n2)(C2CC2)N1 | 98 nM | 7650 nM
8 | O=C1NC(=O)C(CNC(=O)c2cnn(-c3ccc(F)c(F)c3)n2)(C2CCC2)N1 (centres undefined) | 6 nM | 890 nM
9 | O=C1NC(=O)[C@](CNC(=O)c2cnn(-c3ncc(F)cc3F)n2)(C2CC2)N1 | 190 nM | 6200 nM
10 | COc1ccc(-n2ncc(C(=O)NC[C@@]3(C4CC4)NC(=O)NC3=O)n2)cc1 | 100 nM | 6000 nM
11 | O=C1NC(=O)[C@](CNC(=O)c2cnn(-c3nc4ccccc4s3)n2)(C2CC2)N1 | 190 nM | 11000 nM
12 | Cc1cccc(-n2ncc(C(=O)NC[C@@]3(C4CC4)NC(=O)NC3=O)n2)c1 | 170 nM | 2200 nM
13 | O=C1NC(=O)[C@](CNC(=O)c2cnn(-c3ccc(F)cc3Cl)n2)(C2CC2)N1 | 320 nM | 17000 nM
14 | O=C1NC(=O)[C@](CNC(=O)c2cnn(-c3ccccc3)c2)(C2CC2)N1 | 129 nM | 1800 nM
15 | O=C1NC(=O)[C@](CNC(=O)c2nnc(-c3ccc(F)cc3)o2)(C2CC2)N1 | 350 nM | 12000 nM
16 | O=C1NC(=O)C(CNC(=O)c2cnn(-c3ccc(F)cc3)n2)(C2CCCCC2)N1 (centres undefined) | 14 nM | 4100 nM
17 | O=C1NC(=O)C(CNC(=O)c2cnn(-c3ccc(F)cc3)n2)(c2cscn2)N1 (centres undefined) | 12 nM | 2500 nM
18 | Cn1cc(-c2cc(C(=O)NC[C@@]3(C4CC4)NC(=O)NC3=O)on2)cn1 | 52 nM | 4690 nM
19 | O=C1NC(=O)[C@](CNC(=O)c2cnn(-c3ccc(F)cc3)n2)(C2CC2)N1 | 26 nM | 1420 nM
20 | CC(CO)C1(CNC(=O)c2cnn(-c3ccccc3)n2)NC(=O)NC1=O (centres undefined) | 190 nM | 17000 nM
21 | O=C1NC(=O)[C@](CNC(=O)c2cc(-c3cnn(CC4CC4)c3)no2)(C2CC2)N1 | 550 nM | 50000 nM
22 | O=C1NC(=O)[C@](CNC(=O)c2cnn(-c3ccc(Cl)c(Cl)c3)n2)(C2CC2)N1 | 35 nM | 910 nM
23 | CS(=O)(=O)c1ccc(-n2ncc(C(=O)NC[C@@]3(C4CC4)NC(=O)NC3=O)n2)cc1 | 870 nM | 67000 nM
24 | Cn1ccnc1C1(CNC(=O)c2cnn(-c3ccc(F)c(F)c3)n2)NC(=O)NC1=O (centres undefined) | 3 nM | 46 nM
25 | O=C1NC(=O)C(CNC(=O)c2nc(-c3ccccc3)no2)(CC2CC2)N1 (centres undefined) | 250 nM | 2900 nM
26 | C[C@@H](NC(=O)c1cnn(-c2ccccc2)n1)C1(C2CC2)NC(=O)NC1=O (some centres undefined) | 710 nM | 50000 nM

Row | SMILES | IC50 [1] | IC50 [2]
27 | O=C1NC(=O)C(CNC(=O)c2cnn(-c3ccc(Cl)cc3)n2)(C2CCC2)N1 (centres undefined) | 10 nM | 980 nM
28 | O=C1NC(=O)[C@](CNC(=O)c2cnn(-c3cnsc3)n2)(C2CC2)N1 | 230 nM | 7400 nM
29 | O=C1NC(=O)[C@](CNC(=O)c2cnn(-c3ccc(Cl)cc3Cl)n2)(C2CC2)N1 | 130 nM | 7100 nM
30 | O=C1NC(=O)C(CNC(=O)c2cnn(-c3cccc(Cl)c3)n2)(C2CCC2)N1 (centres undefined) | 48 nM | 2200 nM
31 | O=C1NC(=O)[C@](CNC(=O)c2cnn(-c3cccc(F)c3)n2)(C2CC2)N1 | 13 nM | 580 nM
32 | Cc1ccccc1-n1ncc(C(=O)NC[C@@]2(C3CC3)NC(=O)NC2=O)n1 | 980 nM | 12000 nM
33 | O=C1NC(=O)[C@](CNC(=O)c2cnn(-c3ccc(F)c(Cl)c3)n2)(C2CC2)N1 | 5 nM | 250 nM
34 | O=C1NC(=O)[C@](CNC(=O)c2cnn(-c3ccccc3Cl)n2)(C2CC2)N1 | 470 nM | 10000 nM
35 | CC(C)(C)CC1(CNC(=O)c2cnn(-c3ccccc3)n2)NC(=O)NC1=O (centres undefined) | 250 nM | 5000 nM
36 | O=C1NC(=O)[C@](CNC(=O)c2cnn(-c3cc(F)c(F)c(F)c3)n2)(C2CC2)N1 | 25 nM | 1100 nM
37 | O=C1NC(=O)C(CNC(=O)c2cnn(-c3ccc(Cl)c(F)c3)n2)(C2CCC2)N1 (centres undefined) | 6 nM | 975 nM
38 | O=C1NC(=O)C(CNC(=O)c2cnn(-c3cccc(F)c3)n2)(C2CCC2)N1 (centres undefined) | 8 nM | 2200 nM
39 | O=C1NC(=O)[C@](CNC(=O)c2cnn(-c3ccccc3)n2)(C2CC2)N1 | 69 nM | 1450 nM
40 | Cc1ccc(-n2ncc(C(=O)NC[C@@]3(C4CC4)NC(=O)NC3=O)n2)cc1 | 47 nM | 950 nM
41 | O=C1NC(=O)[C@](CNC(=O)c2cnn(-c3ccc(Br)cc3)n2)(C2CC2)N1 | 58 nM | 1400 nM
42 | O=C1NC(=O)[C@](CNC(=O)c2cnn(-c3ccc(F)cn3)n2)(C2CC2)N1 | 140 nM | 4750 nM
43 | O=C1NC(=O)C(CNC(=O)c2cnn(-c3cc(F)c(F)c(F)c3)n2)(C2CCC2)N1 (centres undefined) | 16 nM | 3100 nM
44 | O=C1NC(=O)[C@](CNC(=O)c2cnn(-c3ncccc3F)n2)(C2CC2)N1 | 7 nM | 14000 nM
45 | O=C1NC(=O)[C@](CNC(=O)c2cnn(-c3cccc(Cl)c3)n2)(C2CC2)N1 | 21 nM | 450 nM
46 | O=C1NC(=O)[C@](CNC(=O)c2cnn(-c3ccc(F)cc3F)n2)(C2CC2)N1 | 41 nM | 4250 nM
47 | O=C1NC(=O)[C@](CNC(=O)c2cnn(-c3ccc(Cl)c(F)c3)n2)(C2CC2)N1 | 12 nM | 500 nM
48 | O=C1NC(=O)C(CNC(=O)c2cnn(-c3ccc(F)cc3F)n2)(C2CCC2)N1 (centres undefined) | 63 nM | 8500 nM
49 | N#Cc1cccc(-n2ncc(C(=O)NC[C@@]3(C4CC4)NC(=O)NC3=O)n2)c1 | 32 nM | 600 nM
50 | O=C1NC(=O)C(CNC(=O)c2cnn(-c3ccc(F)c(F)c3)n2)(c2nccs2)N1 (centres undefined) | 7 nM | 310 nM
51 | Cn1ccnc1C1(CNC(=O)c2cnn(-c3ccc(Cl)c(F)c3)n2)NC(=O)NC1=O (centres undefined) | 2 nM | 41 nM
52 | O=C1NC(=O)[C@](CNC(=O)c2cnn(-c3ccc(Cl)cc3)n2)(C2CC2)N1 | 26 nM | 480 nM

Row | SMILES | IC50 [1] | IC50 [2]
53 | O=C1NC(=O)[C@](CNC(=O)c2cnn(-c3ccc(OC(F)(F)F)cc3)n2)(C2CC2)N1 | 190 nM | > 50000 nM
54 | C[C@H](NC(=O)c1cnn(-c2ccccc2)n1)C1(C2CC2)NC(=O)NC1=O (some centres undefined) | 980 nM | 25000 nM
55 | O=C1NC(=O)[C@](CNC(=O)c2cnn(-c3cnccn3)n2)(C2CC2)N1 | 355 nM | 24000 nM
56 | O=C1NC(=O)[C@](CNC(=O)c2cnn(-c3cccc(F)c3F)n2)(C2CC2)N1 | 74 nM | 3100 nM
57 | N#Cc1cccc(-n2ncc(C(=O)NCC3(C4CCC4)NC(=O)NC3=O)n2)c1 (centres undefined) | 78 nM | 4000 nM
58 | O=C1NC(=O)C(CNC(=O)c2cnn(-c3ccc(F)c(Cl)c3)n2)(C2CCC2)N1 (centres undefined) | 18 nM | 1800 nM
59 | O=C1NC(=O)[C@](CNC(=O)c2cnc(-c3ccccc3)o2)(C2CC2)N1 | 550 nM | 11300 nM
60 | CC(C)C1(CNC(=O)c2cnn(-c3ccc(F)c(Cl)c3)n2)NC(=O)NC1=O (centres undefined) | 190 nM | 12000 nM
61 | O=C1NC(=O)[C@](CNC(=O)c2cnn(-c3ccc(F)c(F)c3)n2)(C2CC2)N1 | 7 nM | 175 nM
62 | O=C1NC(=O)C(CNC(=O)c2cnn(-c3ccccc3)n2)(c2ccncc2)N1 (racemic) | 20 nM | 2800 nM
63 | O=C1NC(=O)C(CNC(=O)c2cnn(-c3ccccc3)n2)(c2ccccn2)N1 (racemic) | 26 nM | 4800 nM
64 | CC(C)C1(CNC(=O)c2cnn(-c3ccccc3)n2)NC(=O)NC1=O (racemic) | 265 nM | 14500 nM
65 | CC(C)(C)C1(CNC(=O)c2cnn(-c3ccc(C(F)(F)F)c(F)c3)n2)NC(=O)NC1=O (racemic) | 210 nM | 50000 nM
66 | CC(C)(C)C1(CNC(=O)c2cnn(-c3ccc(C(F)(F)F)cc3)n2)NC(=O)NC1=O (racemic) | 620 nM | 50000 nM
67 | CC(C)(C)C1(CNC(=O)c2cnn(-c3cccc(F)c3)n2)NC(=O)NC1=O (racemic) | 260 nM | 6600 nM
68 | CC(C)(C)C1(CNC(=O)c2cnc(-c3ccccc3)o2)NC(=O)NC1=O (racemic) | 480 nM | 50000 nM
69 | O=C1NC(=O)C(CNC(=O)c2cnn(-c3ccccc3)n2)(C2CCCOC2)N1 (racemic) | 62 nM | 8500 nM
70 | O=C1NC(=O)C(CNC(=O)c2cnn(-c3ccc(F)cc3)n2)(c2ccccn2)N1 (racemic) | 10 nM | 3000 nM
71 | O=C1NC(=O)C(CNC(=O)c2cnn(-c3ccc(F)cc3)n2)(c2cccnc2)N1 (racemic) | 30 nM | 4500 nM
72 | O=C1NC(=O)C(CNC(=O)c2cnn(-c3ccc(F)cc3)n2)(c2ccncc2)N1 (racemic) | 140 nM | 2900 nM
73 | O=C1NC(=O)C(CNC(=O)c2cnn(-c3ccccc3)n2)(C2CCOC2)N1 (racemic) | 170 nM | 22000 nM
74 | Cn1ccnc1C1(CNC(=O)c2cnn(-c3ccccc3)n2)NC(=O)NC1=O (stereo in doubt) | – | 320 nM
75 | CC(C)C1(CNC(=O)c2cnn(-c3ccc(F)cc3F)n2)NC(=O)NC1=O (stereo in doubt) | – | 13000 nM
76 | O=C1NC(=O)C(CNC(=O)c2cnn(-c3ccc(F)cc3)n2)(c2ccccn2)N1 (stereo in doubt; form 1) | – | 1900 nM
